Results on four molecules are retold here after patent US20210087159A1, “TETRAHYDROCANNABINOLIC- CA[…] DERIVATIVES AND USES THEREOF” (AL&AM […]., priority 2018, published 2021).

In general, pIC50 refers to the IC50 on a negative log10 scale, so that one unit is a factor of ten. Usually Inhibition stands for the change of the read-out against control, counted positive when it falls. High values mean strong suppression, low ones little suppression.

What all share (assay type): cell-based
Assay [1] concerns PANC-1 (pancreatic carcinoma). As to the kind of experiment: XTT cytotoxicity assay (Pharma Seed). The conditions noted are these: Homo sapiens, 48 hours, 20, 10, 5, 1 μM, assay medium 1% FBS. The method, then: In this study, the cytotoxicity of several compounds of the present invention on lung and pancreatic cancer cell was evaluated.
PANC-1 (pancreatic carcinoma) culture medium: DMEM (High Glucose), supplemented with 10% FBS (heat inactivated), 2 mM L-glutamine, and 1% of Pen/Strep/Amp solution. PANC-1 assay medium: DMEM (High Glucose), supplemented with 1% FBS (heat inactivated), 2 mM L-glutamine, and 1% of Pen/Strep/Amp solution.
Each of the tested compounds was dissolved in DMSO to reach a stock concentration of 20 mM (and stored at −15° C.-−25° C. until use. Compound Ia28 (MW 484 g/mol, 3.05 mg total) was dissolved in 0.315 mL; compound Ia9 (MW 484 g/mol, 2.33 mg total) was dissolved in 0.241 mL; and compound Ia6 (MW 428.3 g/mol, 2.25 mg total) was dissolved in 0.262 mL.
On the day of incubation with the cells, each compound was diluted in DMSO to reach 2 mM, 1 mM, 0.5 mM, 0.1 mM stock concentrations (1:10, 1:20, 1:40 and 1:200), and each of these stocks was further diluted in assay medium 1:100 for final concentration of 20 μM, 10 μM, 5 μM, and 1 μM.
Part 1—cell number calibration. PANC-1 and A549 cells were each plated in a 96 well plate, in their culture medium, at various cell concentrations per well, in triplicates, and were allowed to attach for 24 hours. Thereafter, culture medium was discarded, assay medium was added, and the cells were incubated for additional 72 hours. Finally, assay medium was discarded, and fresh culture medium was added to the cells along with 50 μl XTT reagent. The OD was measured every two hours for 6 hours (three times).
The highest cells number/well were chosen for part 2 as follows: PANC-1 at 7,500 cells per well, A549 at 5000 cells per well.
Part 2—cells incubation with tested compounds. PANC-1 and A549 cells were plated in a 96 well plate, in their culture medium, at the optimal cell concentration according to the results from the previous section and were allowed to attach for 24 hours. Thereafter, the culture medium was discarded, and fresh assay medium was added to the cells, supplemented with elevating compound concentrations. Triton 0.1% was used as positive control for cell death. The cells were incubated for another 48 hours (TBD upon microscopic observation). Finally, fresh culture medium was added to the cells along with 50 μl XTT reagent. The OD was measured at the optimal time point according to the results in the previous section.

In assay [2] the test system is human peripheral blood mononuclear cells (PBMCs). As to the kind of experiment: Cell proliferation of LPS-challenged PBMCs by CellTiter-Glo (CTG). The note with it: for effect on cell proliferation: LPS-treated human PBMCs, CTG; for CTG signal: human PBMCs, 72 h (LPS control 84.50). From the text:
This study was aimed to test the effect of 12 compounds (THCA, Ia1, Ia5, Ia6, Ia9, Ia11, Ia15, Ia17, Ia24, Ia25, Ia27, and Ia28) on human peripheral blood mononuclear cells (PBMCs) challenged by lipopolysaccharide (LPS) through monitoring multiple inflammatory endpoints.
Blood samples were collected from healthy volunteers according to protocols that have been reviewed and approved by the Chempartner Institutional Ethic Committee (IEC) upon signing an Informed Consent Form (ICF).
Fresh PBMCs were isolated and seeded into 96-well plate, and diluted solutions of the tested compounds and 0.1 μg/mL LPS were then added (in triplicates). To serve as control, 3 wells with PBMCs only, 3 wells with 0.1 μg/mL LPS, and 2 wells with 1 μg/mL dexamethasone (Dex) and 0.1 μg/mL LPS were included. After 72 hours incubation, supernatant was collected for tumor necrosis factor-α (TNF-α) measurement by enzyme-linked immunosorbent assay (ELISA), and cell pellets were harvested for cell proliferation measurement by CellTiter-Glo® Luminescent Cell Viability Assay (CTG).
The human blood sample from an individual donor was diluted by the same volume of sterile phosphate buffered solution (PBS) and mixed sufficiently by gentle shake. 15 mL Lymphoprep™ medium was transferred into a new 50 mL centrifuge tube, and the diluted blood sample (30 mL) was then carefully added onto the surface of the medium, which consequently contained Ficoll 400 and blood in a volume ratio of 1:2. Four interfaces were observed after centrifugation, which are, from top to bottom, layers of plasma, mononuclear cells, Ficoll medium, and red blood cells (RBCs). Plasma was absorbed, and mononuclear cells were then transferred into another new sterile centrifuge tube. Then, sterile PBS buffer was added into the collected PBMCs for washing, at a volume ratio of 3:1. PBMCs were washed with 5-10 mL PBS twice before cell counting with cytometer. Cells were centrifuged at 350×g, for 10 min, at 20° C. with the acceleration (5) and deceleration (5) settings during the centrifugation. The cells were resuspended with RPMI 1640 complete medium (containing 10% FBS) for assay, and the density was adjusted with RPMI 1640 complete medium to the final concentration of 2E6 cells/mL. Cells suspension of the PBMCs (100 μL/well) were seeded into 96-well plate (#3903).
Diluted solutions of the tested compounds were prepared with RPMI 1640 complete medium according to the following layout. Compounds were prepared at 5-fold of concentration (50 μM), and then were diluted to the working concentration of 10 μM with RPMI 1640 complete medium and made 10-fold serially dilution (2 points). The diluted compounds (50 μL/well) were added to the indicated wells, and the plate was incubated at 37° C., 5% CO2, for 72 h.
LPS (0.1 μg/mL, 100 μL) was added into each well. Dex (1 μg/mL) was included as a positive control. Plate was incubated at 37° C., 5% CO2 for 72 h. Supernatant was collected to measure TNF-α by ELISA. Cell proliferation was detected by CTG.
(In general: In ATP-based viability assays light output follows the ATP content of the culture.)

The test system of another assay is U251, brain human glioma. Put plainly: CellTiter-Glo cell viability assay, cancer cell cytotoxicity/anti-proliferation panel (Chempartner). The note with it: for pIC50: Homo sapiens, U-251, 72 h, read-out: IC50 (absolute IC50); for Inhibition: U251, 72 hours, compounds 10 μM starting, STS 2 μM starting, 10-pt, 3-fold dilution.

Each structure is given as a SMILES string. pIC50: −log10 of the molar value.

Take `CCCCCc1cc2c(c(O)c1C(=O)NCCN(C)C)[C@@H]1C=C(C)CC[C@H]1C(C)(C)O2` [Ia6, (6aR,0aR)—N-(2-(dimethylamino)ethyl)-1-hydroxy-6,6,9-trimethyl-3-pentyl-6a,7,8,10a-tetrahydro-6H-benzo[c]chromene-2-carboxamide]: the pIC50 was 5.03 in assay [1] and 5.14 with U251, brain human glioma. The “effect on cell proliferation” value in assay [2] is reported as “inhibition of cell proliferation”. The CTG signal in assay [2] (compound 1 μM + 0.1 μg/mL LPS) is 80.67 10^4; in assay [2] (compound 10 μM + 0.1 μg/mL LPS) it was 37.67 10^4. The Inhibition with U251, brain human glioma is listed as 70.02%.

For the molecule `CCCCCc1cc2c(c(O)c1C(=O)NCCCN1CCOCC1)[C@@H]1C=C(C)CC[C@H]1C(C)(C)O2` [Ia9, (6aR,0aR)-1-hydroxy-6,6,9-trimethyl-N-(3-morpholinopropyl)-3-pentyl-6a,7,8,10a-tetrahydro-6H-benzo[c]chromene-2-carboxamide], the negative-log IC50 (pIC50) was 4.94 in assay [1] and 5.05 in the assay on U251, brain human glioma. In addition, the “effect on cell proliferation” value in assay [2] was “inhibition of cell proliferation”. Besides, the CTG signal was 77.55 10^4 in assay [2] (compound 1 μM + 0.1 μg/mL LPS) and 23.31 10^4 in assay [2] (compound 10 μM + 0.1 μg/mL LPS). Also, the Inhibition in the assay on U251, brain human glioma came to 68.11%.

`C=C(C)[C@@H]1CCC(C)=C[C@H]1c1c(O)cc(CCCCC)c(C(=O)NCCCN2CCOCC2)c1O` [Ia28, (1′R,2′R)-2,6-dihydroxy-5′-methyl-N-(3-morpholinopropyl)-4-pentyl-2′-(prop-1-en-2-yl)-1′,2′,3′,4′-tetrahydro-[1,1′-biphenyl]-3-carboxamide]: the pIC50 in assay [1] was 4.72. The CTG signal is recorded as 76.24 10^4 in assay [2] (compound 1 μM + 0.1 μg/mL LPS) and 72.61 10^4 in assay [2] (compound 10 μM + 0.1 μg/mL LPS).

On to `CCCCCc1cc2c(c(O)c1C(=O)O)[C@@H]1C=C(C)CC[C@H]1C(C)(C)O2` [THCA, tetrahydrocannabinolic acid, reference compound], for which the CTG signal in assay [2] (compound 1 μM + 0.1 μg/mL LPS) is given as 74.89 10^4. Further, the CTG signal in assay [2] (compound 10 μM + 0.1 μg/mL LPS) was 75.54 10^4. Besides, in the assay with U251, brain human glioma, the pIC50 is less than 5.00 and the Inhibition was 17.22%.
